{"source": "patent US20180185312A1", "about": "“METHOD AND COMPOSITION FOR PREVENTING OR TREATING IMMUNE ALLERGIC AIRWAY DISEASE” (Development Center for Biotechnology, priority 2016, published 2018)", "key": {"[1]": {"test_system": "IL-9", "assay": "Cytokines in nasal irrigation solution, allergic rhinitis animal model: IL-9", "assay_type": "in vivo", "details": "BALB/c mice, in comparison with the disease group, increasing amount of SAC", "procedure": "(§1) 3. All animals were sacrificed at the end of the 4th week after being given the tested material, their nasal cavities were rinsed 3 times with 1 ml of physiological saline solution, then nasal irrigation solution was collected, centrifuged at 1000 rpm for 5 minutes at 4° C. to collect the supernatant solution, then store at −80° C. for preservation."}, "[2]": {"test_system": "IL-6", "assay": "Cytokines in nasal irrigation solution, allergic rhinitis animal model: IL-6", "assay_type": "in vivo", "details": "BALB/c mice, in comparison with the disease group, increasing amount of SAC", "procedure": "as §1"}, "[3]": {"assay": "Conversion of effective amount from mouse to human by conversion factor W", "details": "converted from the mouse amount with conversion factor W 0.11", "procedure": "For example, when being administered into a mouse, an effective amount of SAC is at least approximately 25 mg/kg; more preferably, an effective amount of SAC is approximately from 25 mg/kg to 100 mg/kg. When being administered into a person, an effective amount of SAC is at least approximately 2.75 mg/kg; more preferably, an effective amount is approximately from 2.75 mg/kg to 11 mg/kg. The conversion of an effective amount from animal to animal can be easily calculated by those skilled in the art based on known knowledge. For example, when an effective amount per kg for animal A is known and an effective amount per kg for animal B is to be calculated, look up table 1 first to find the conversion factor (W), then calculate as follows: An effective amount for animal B (mg/kg)=W×an effective amount for animal A (mg/kg) For example, in one of the examples of this disclosure, an effective amount of SAC being administered into a mouse was 25 mg/kg, which needs to be converted into an effective amount for a human. Animal A is a mouse and animal B is a human, the crossing point which is the conversion factor W is 0.11, therefore an effective amount for a human is 0.11×25 mg/kg=2.75 mg/kg. [table]"}, "[4]": {"test_system": "allergic rhinitis", "assay": "Allergic rhinitis animal model: frequency of sneezing and nasal rubbing", "assay_type": "in vivo, Mice (BALB/c)", "text": "Drug Efficacy Evaluation for Allergic Rhinitis in Animals 1. Species: Mice. 2. Strain: BALB/c. 8. Number of animals: The animals were divided into 5 groups, 4 to 5 animals per group, a total of 24 animals. [table] 1. The frequency of sneezing and nasal rubbing of the mice was observed once per week."}, "[5]": {"details": "BALB/c mice, SAC 25, 50, 100 mpk p.o. twice per day, in comparison to the disease group"}}, "data": [{"smiles": "C=CCSC[C@H](N)C(=O)O", "note": "[SAC, S-allyl-L-Cysteine]", "values": [{"measurement": "level of IL-9 in nasal irrigation solution", "setting": "[1]", "result": "decreased"}, {"measurement": "level of IL-6 in nasal irrigation solution", "setting": "[2]", "result": "decreased"}, {"measurement": "effective amount for a human", "setting": "[3]", "result": 2.75, "unit": "mg/kg"}, {"measurement": "frequency of nasal rubbing", "setting": "[4]; [5]", "result": "tended to decline"}, {"measurement": "frequency of sneezing", "setting": "[4]; [5]", "result": "tended to decline"}, {"measurement": "effective amount administered into a mouse", "setting": "[4]; mouse, in one of the examples", "result": 25, "unit": "mg/kg"}]}]}
